Reference: patent US20070061899A1, “Transgenic mammal with constitutive, tissue-specific cytokine expression and use as a cancer model” (THE TRUSTEES OF COLUMBIA UNIVERSITY IN THE CITY OF NEW YORK, priority 2005, published 2007)

Assays:
[1] = tested on: fibrosarcoma; details: control mice, systemic treatments; cited from earlier work
[2] = tested on: B16 melanoma; details: murine B16 model, cited from earlier work
[3] = tested on: IL-1β mice and C57BL/6J mice infected with Helicobacter felis; experiment: IL-1RA treatment of bone marrow transplanted, Helicobacter felis infected mice; format: in vivo, mouse; details: hIL-1RA by osmotic minipump, 100 mg/kg/day for 30 days; eight weeks after H. felis infection
Excerpt: Bone marrow transplantation, and Helicobacter felis infection and IL-RA treatment. Bone marrow was isolated from the femurs and tibias of 6-8 week old C57BL/6-TgN [ACThEGFP] (GFP) mice. Total bone marrow was washed, triturated using a 20 gauge needle and passed through a 40 sum nylon mesh cell strainer (Becton Dickson) to produce a single cell suspension in PBS. Recipient IL-β mice and C57BL/6J mice were irradiated with 900 rads from a cesium 137-gamma cell irradiator, reconstituted with 3×10^6 donor marrow cells via a single tail vein injection, and used for experiments after 2 weeks of recovery. The overall level of engraftment was 60-80% as assessed by analysis of β-galactosidase or GFP in peripheral leukocytes. Non-transplanted IL-β mice and C57BL/6 mice served as controls for all injury models. Helicobacter felis (strain 49179) was obtained from the […] (Rockville, Md.), grown as recommended and bacteria enumerated as previously described (Houghton 2004). Two weeks after transplantation, mice were infected by oral gavage with 1×10^7 colony forming units every other day for 3 days. […]
Single cell preparation and FACS analysis. […] All single cell suspensions were stained with FITC-labeled anti-CD34, PE-labeled […] as well as Cy5-labeled anti-CD3 and anti-B220 antibodies (Pharmingen) and analyzed using a FACScan™ flow cytometer. […]

[4] = tested on: tumor development induced by IL-1; details: release of 25 ng per day from microencapsulated cells, mice; cited from earlier work
[5] = tested on: C57BL/6J mice and Balb/c mice; experiment: Continuous infusion of IL-1β into mice (preliminary experiment); format: in vivo, mouse; details: continuous infusion (13 days)

| Molecule | fibrosarcoma growth [1] | metastases [2] | survival rates [2] | development of gastritis [3] | mobilization of hematopoietic stem cells circulation and stomach tissues [3] | angiogenesis [4] | tumor development [4] | gastric atrophy [5] | liver metastasis ([2]; intrasplenic injection) |
| --- | --- | --- | --- | --- | --- | --- | --- | --- | --- |
| IL-1RA: IL-1 receptor antagonist; binds IL-1 receptor type I without transmitting an activation signal | inhibited | reduced | increased | reduces | reduces | reduced | inhibited |  |  |
| IL-1β: proinflammatory pleiotropic cytokine, infused or injected into mice (protein, UniProt P10749 118-269, looked up) Interleukin-1 beta: VPIRQLHYRLRDEQQKSLVLSDPYELKALHLNGQNINQQVIFSMSFVQGEPSNDKIPVALGLKGKNLYLSCVMKDGTPTLQLESVDPKQYPKKKMEKRFVFNKIEVKSKVEFESAEFPNWYISTSQAEHKPVFLGNNSGQDIIDFTMESVSS |  |  |  |  |  |  |  | caused gastric atrophy | increased |
